The values that follow come from patent US20110245242A1, “Heterocyclically Substituted Anilinopyrimides” (Bayer CropScience AG, priority 2008, published 2011).

A short description of data set [1]: log P by HPLC on reversed-phase columns (C 18), method [a], acidic range pH 2.3. The data set is classed as physicochemical. The note with it: pH 2.3, log P (pH 2.3). How it is done: The log P values were measured in accordance with EEC Directive 79/831 Annex V.A8 by HPLC (High Performance Liquid Chromatography) on reversed-phase columns (C 18) using the methods below: [a] The determination was carried out in the acidic range at pH 2.3 using the mobile phases 0.1% aqueous phosphoric acid and acetronitrile linear gradient from 10% acetonitrile to 95% acetronitrile.

Data set [2] is described as follows: log P by LC-MS, method [b], acid range pH 2.7. The data set is classed as physicochemical. To be noted: pH 2.7. Here is the method:
The log P values were measured in accordance with EEC Directive 79/831 Annex V.A8 by HPLC (High Performance Liquid Chromatography) on reversed-phase columns (C 18) using the methods below:
[b] The LC-MS determination in the acid range was carried out at pH 2.7 using the mobile phases 0.1% aqueous formic acid and acetonitrile (contains 0.1% formic acid)
linear gradient from 10% acetonitrile to 95% acetonitrile.

In general, chromatographic logP refers to a lipophilicity value derived from retention on a column. Read a low chromatographic logP as a more hydrophilic compound. Turning to `O=C1CCCN1c1cc([N+](=O)[O-])ccc1F` [1-(2-Fluoro-5-nitrophenyl)pyrrolidin-2-one], the chromatographic logP in data set [1] came to 1.47.
Regarding `Nc1cc(N2C(=O)CCC2=O)ccc1Cl` [1-(3-Amino-4-chlorophenyl)pyrrolidine-2,5-dione], the chromatographic logP in data set [1] was determined as 0.79.
The same measure, in the same setting: with `COc1cc(N)cc(N2CCCC2=O)c1` [1-(3-Amino-5-methoxyphenyl)pyrrolidin-2-one] the figure was 0.6; with `CC1(C)CC(=O)N(c2cccc(N)c2)C1=O` [1-(3-Aminophenyl)-3,3-dimethylpyrrolidine-2,5-dione], 0.86; with `Nc1cccc(N2C(=O)CCC2C(F)(F)F)c1` (centres unmarked) [1-(3-Aminophenyl)-5-(trifluoromethyl)pyrrolidin-2-one], 1.07.
The same measure, in the same setting: with `CCC1CC(C)C(=O)N1c1cccc(N)c1` (centres unmarked) [1-(3-Aminophenyl)-5-ethyl-3-methylpyrrolidin-2-one] the figure was 1.31; with `CCC1CCC(=O)N1c1cccc(N)c1` (centres unmarked) [1-(3-Aminophenyl)-5-ethylpyrrolidin-2-one], 0.94.
The same measure, in the same setting: with `CC1CCC(=O)N1c1cccc(N)c1` (centres unmarked) [1-(3-Aminophenyl)-5-methylpyrrolidin-2-one] the figure was 0.52; with `COc1cc(N2CCCC2=O)cc([N+](=O)[O-])c1` [1-(3-Methoxy-5-nitrophenyl)pyrrolidin-2-one], 1.99.
For the compound `Nc1ccc(F)c(N2CCCC2=O)c1` [1-(5-Amino-2-fluorophenyl)pyrrolidin-2-one], in data set [1], the chromatographic logP is 0.31.
`CC(C)Nc1nc(Nc2ccc(N3C(=O)OCC3C)cc2)ncc1Cl` (centres unmarked) [Example 142]: in data set [2], the log p is 1.61[b].
On to `CC(C)Nc1nc(Nc2cccc(N3CCOCC3=O)c2)ncc1Cl` [Example 143], for which the log p in data set [2] is 1.41[b].
`CC(C)Nc1nc(Nc2cccc(N3C(=O)CCC3C)c2)ncc1Cl` (centres unmarked) [Example 144]: the log p in data set [2] was 1.66[b].
Still for that read-out and setting: with `CC(C)Nc1nc(Nc2cccc(N3C(=O)CC(C)C3=O)c2)ncc1Cl` (centres unmarked) [Example 145] the figure was 1.59[b]; with `CC(C)Nc1nc(Nc2cccc(N3C(=O)OCC3C)c2)ncc1Br` (centres unmarked) [Example 147], 1.73[b]; with `CC(C)Nc1nc(Nc2cccc(N3C(=O)CC(C)(C)C3=O)c2)ncc1Br` [Example 148], 1.93[b].
For `CC(C)Nc1nc(Nc2cccc(N3C(=O)C(C)CC3C)c2)ncc1Br` (centres unmarked) [Example 149], the log p in data set [2] is 1.98[b].
Same read-out and setting: with `CC(C)Nc1nc(Nc2ccc(N3C(=O)OCC3C)cc2)ncc1Br` (centres unmarked) [Example 150] the figure was 1.68[b].
The same measure, in the same setting: with `CC(C)Nc1nc(Nc2cccc(N3CCOCC3=O)c2)ncc1Br` [Example 151] the figure was 1.47[b]; with `CC(C)Nc1nc(Nc2cccc(N3C(=O)CCC3C)c2)ncc1Br` (centres unmarked) [Example 152], 1.73[b].
On the same count and under the same terms, with `CC(C)Nc1nc(Nc2cccc(N3C(=O)CC(C)C3=O)c2)ncc1Br` (centres unmarked) [Example 153] the figure was 1.68[b]; with `O=C1OCCN1c1cccc(Nc2ncc(Cl)c(NCC(F)F)n2)c1` [Example 154], 1.63[b]; with `CC1COC(=O)N1c1cccc(Nc2ncc(Cl)c(NCC(F)F)n2)c1` (centres unmarked) [Example 155], 1.81[b].
For the compound `CC1(C)CC(=O)N(c2cccc(Nc3ncc(Cl)c(NCC(F)F)n3)c2)C1=O` [Example 156], the log p in data set [2] is 2.01[b].
Same read-out and setting: with `CC1CC(C)N(c2cccc(Nc3ncc(Cl)c(NCC(F)F)n3)c2)C1=O` (centres unmarked) [Example 157] the figure was 2.11[b].
Still for that read-out and setting: with `CC1COC(=O)N1c1ccc(Nc2ncc(Cl)c(NCC(F)F)n2)cc1` (centres unmarked) [Example 158] the figure was 1.68[b].
For `O=C1COCCN1c1cccc(Nc2ncc(Cl)c(NCC(F)F)n2)c1` [Example 159], the log p in data set [2] is 1.46[b].
Still for that read-out and setting: with `CC1CCC(=O)N1c1cccc(Nc2ncc(Cl)c(NCC(F)F)n2)c1` (centres unmarked) [Example 160] the figure was 1.81[b]; with `CC1CC(=O)N(c2cccc(Nc3ncc(Cl)c(NCC(F)F)n3)c2)C1=O` (centres unmarked) [Example 161], 1.68[b].
With `O=C1OCCN1c1cccc(Nc2ncc(Br)c(NCC(F)F)n2)c1` [Example 162], the log p in data set [2] was 1.71[b].
Consider `CC1COC(=O)N1c1cccc(Nc2ncc(Br)c(NCC(F)F)n2)c1` (centres unmarked) [Example 163], for which, in data set [2], the log p is 1.88[b].
The same measure, in the same setting: with `CC1(C)CC(=O)N(c2cccc(Nc3ncc(Br)c(NCC(F)F)n3)c2)C1=O` [Example 164] the figure was 2.08[b].
On the same count and under the same terms, with `CC1COC(=O)N1c1ccc(Nc2ncc(Br)c(NCC(F)F)n2)cc1` (centres unmarked) [Example 165] the figure was 1.78[b]; with `O=C1COCCN1c1cccc(Nc2ncc(Br)c(NCC(F)F)n2)c1` [Example 166], 1.51[b]; with `CC1CCC(=O)N1c1cccc(Nc2ncc(Br)c(NCC(F)F)n2)c1` (centres unmarked) [Example 167], 1.91[b].
The same measure, in the same setting: with `CC1CC(=O)N(c2cccc(Nc3ncc(Br)c(NCC(F)F)n3)c2)C1=O` (centres unmarked) [Example 168] the figure was 1.78[b].
As for `CC1(C)CC(=O)N(c2cccc(Nc3ncc(Cl)c(NCC(F)(F)F)n3)c2)C1=O` [Example 170], the log p in data set [2] was 2.36[b].
Still for that read-out and setting: with `CC1CC(C)N(c2cccc(Nc3ncc(Cl)c(NCC(F)(F)F)n3)c2)C1=O` (centres unmarked) [Example 171] the figure was 2.51[b]; with `CC1COC(=O)N1c1ccc(Nc2ncc(Cl)c(NCC(F)(F)F)n2)cc1` (centres unmarked) [Example 172], 2.06[b]; with `O=C1COCCN1c1cccc(Nc2ncc(Cl)c(NCC(F)(F)F)n2)c1` [Example 173], 1.73[b].
On to `CC1CCC(=O)N1c1cccc(Nc2ncc(Cl)c(NCC(F)(F)F)n2)c1` (centres unmarked) [Example 174], for which the log p in data set [2] is 2.16[b].
Still for that read-out and setting: with `O=C1OCCN1c1cccc(Nc2ncc(Cl)c(NCC(F)(F)F)n2)c1` [Example 175] the figure was 2.01[b]; with `CC1COC(=O)N1c1cccc(Nc2ncc(Cl)c(N(C)C3CC3)n2)c1` (centres unmarked) [Example 176], 2.29[b].
Turning to `CC1COC(=O)N1c1ccc(Nc2ncc(Cl)c(N(C)C3CC3)n2)cc1` (centres unmarked) [Example 179], in data set [2], the log p was 2.16[b].
Take `CC1CCC(=O)N1c1cccc(Nc2ncc(Cl)c(N(C)C3CC3)n2)c1` (centres unmarked) [Example 180]: in data set [2], the log p was 2.26[b].
Same read-out and setting: with `CC1CC(=O)N(c2cccc(Nc3ncc(Cl)c(N(C)C4CC4)n3)c2)C1=O` (centres unmarked) [Example 182] the figure was 2.21[b]; with `COCC(C)Nc1nc(Nc2cccc(N3C(=O)OC[C@H]3C)c2)ncc1Br` (some centres unmarked) [Example 183], 1.71[b]; with `C[C@@H]1C[C@H](C)N(c2cccc(Nc3ncc(Br)c(NCC(F)F)n3)c2)C1=O` [Example 189], 3.24[b].
Same read-out and setting: with `CC1(C)CC(=O)N(c2cccc(Nc3ncc(C(F)(F)F)c(NC4CCC4)n3)c2)C1=O` [Example 192] the figure was 3.03[b]; with `O=C1CCCN1c1cc(Nc2ncc(C(F)(F)F)c(NCC3CC3)n2)ccc1F` [Example 201], 2.41[b].
Regarding `CC1CC1Nc1nc(Nc2cccc(N3CCOC3=O)c2)ncc1Cl` (centres unmarked) [Example 205], the log p in data set [2] was 1.67[b].
Same read-out and setting: with `O=c1ccccn1-c1cccc(Nc2ncc(Br)c(NC3CCC3)n2)c1` [Example 221] the figure was 1.71[b].
Take `O=C1CCCN1c1cccc(Nc2ncc(Cl)c(N3CCCC3)n2)c1` [Example 222]: the log p in data set [2] was 1.67[b].
The same measure, in the same setting: with `CCC1CC1Nc1nc(Nc2cccc(N3CCCC3=O)c2)ncc1Cl` (centres unmarked) [Example 242] the figure was 1.99[b].
Same read-out and setting: with `CCC1CCC(=O)N1c1cccc(Nc2ncc(C(F)(F)F)c(NC3CC3)n2)c1` (centres unmarked) [Example 255] the figure was 2.75[b]; with `O=C1N(CCCl)CCN1c1cccc(Nc2ncc(Br)c(NC3CC3)n2)c1` [Example 285], 1.92[b].
Turning to `O=C1N(CCCl)CCN1c1cccc(Nc2ncc(Cl)c(NC3CC3)n2)c1` [Example 286], in data set [2], the log p is 1.82[b].
On the same count and under the same terms, with `CC1CC(Nc2nc(Nc3cccc(N4C(=O)CCC4=O)c3)ncc2Br)C1` (centres unmarked) [Example 288] the figure was 1.86[b]; with `CC1CC(Nc2nc(Nc3cccc(N4CCN(C)C4=O)c3)ncc2Br)C1` (centres unmarked) [Example 290], 2[b].
On to `CC1CC(Nc2nc(Nc3cccc(N4C(=O)C(C)CC4C)c3)ncc2Br)C1` (centres unmarked) [Example 291], for which, in data set [2], the log p is 2.66[b].
On the same count and under the same terms, with `CN1CCN(c2cccc(Nc3ncc(C(F)(F)F)c(NC4CC4)n3)c2)C1=O` [Example 293] the figure was 2.22[b].
On the same count and under the same terms, with `CN1CCN(c2cccc(Nc3ncc(I)c(NC4CC4)n3)c2)C1=O` [Example 296] the figure was 1.57[b].
In the case of `CC(CF)Nc1nc(Nc2cccc(N3CCCC3=O)c2)ncc1C(F)(F)F` (centres unmarked) [Example 298], the log p in data set [2] is 2.48[b].
On to `O=C1CCCN1c1cccc(Nc2ncc(C(F)(F)F)c(NC3CCCC3)n2)c1` [Example 303], for which, in data set [2], the log p was 3.04[b].
Still for that read-out and setting: with `CCCNc1nc(Nc2cccc(N3CCCC3=O)c2)ncc1Cl` [Example 307] the figure was 1.49[b]; with `CC1CC(Nc2nc(Nc3cccc(N4C(=O)CCC4C)c3)ncc2Br)C1` (centres unmarked) [Example 317], 2.17[b].
Still for that read-out and setting: with `CN(c1nc(Nc2cccc(N3CCCC3=O)c2)ncc1C(F)(F)F)C1CCCC1` [Example 319] the figure was 3.56[b]; with `O=C1CCCN1c1cccc(Nc2ncc(C(F)(F)F)c(N3CCCCC3)n2)c1` [Example 320], 3.29[b].
Take `CC1(C)CC1Nc1nc(Nc2cccc(N3CCCC3=O)c2)ncc1C(F)(F)F` (centres unmarked) [Example 321]: the log p in data set [2] is 3.04[b].
Consider `O=C1CCCN1c1cccc(Nc2ncc(C(F)(F)F)c(NC3COC3)n2)c1` [Example 322], for which the log p in data set [2] is 1.84[b].
The same measure, in the same setting: with `CNc1nc(Nc2cccc(N3CCCC3=O)c2)ncc1C(F)(F)F` [Example 323] the figure was 1.63[b].
